Calls of active or inactive are those of the source. The calls are words filed in the database; no cut-off is given here.
Assays:
[1] = Intrinsic clearance in rat liver microsomes at 1 uM after 5 to 30 mins by LC-MS/MS analysis; format: ADME, microsome; conditions: read-out: CLH
[2] = biological target: Vascular endothelial growth factor receptor 2 (Homo sapiens, UniProt P35968)
Description: Inhibition of KDR (unknown origin) expressed in mouse Ba/F3 cells

Rattus norvegicus = test: Antiangiogenic activity in Brown Norway rat laser-induced choroidal neovascularization model assessed as inhibition of neovascularization administered 1% suspension using 4 uL topical drop to both eyes every 3 hrs for 9 hrs by microscopic analysis
Mus musculus = test: Antiangiogenic activity in C57BL/6 mouse laser-induced choroidal neovascularization model assessed as inhibition of neovascularization administered 1% suspension using 3.5 uL topical drop to both eyes every 3 hrs for 9 hrs by microscopic analysis

Chain of Vascular endothelial growth factor receptor 2 (P35968 whole entry): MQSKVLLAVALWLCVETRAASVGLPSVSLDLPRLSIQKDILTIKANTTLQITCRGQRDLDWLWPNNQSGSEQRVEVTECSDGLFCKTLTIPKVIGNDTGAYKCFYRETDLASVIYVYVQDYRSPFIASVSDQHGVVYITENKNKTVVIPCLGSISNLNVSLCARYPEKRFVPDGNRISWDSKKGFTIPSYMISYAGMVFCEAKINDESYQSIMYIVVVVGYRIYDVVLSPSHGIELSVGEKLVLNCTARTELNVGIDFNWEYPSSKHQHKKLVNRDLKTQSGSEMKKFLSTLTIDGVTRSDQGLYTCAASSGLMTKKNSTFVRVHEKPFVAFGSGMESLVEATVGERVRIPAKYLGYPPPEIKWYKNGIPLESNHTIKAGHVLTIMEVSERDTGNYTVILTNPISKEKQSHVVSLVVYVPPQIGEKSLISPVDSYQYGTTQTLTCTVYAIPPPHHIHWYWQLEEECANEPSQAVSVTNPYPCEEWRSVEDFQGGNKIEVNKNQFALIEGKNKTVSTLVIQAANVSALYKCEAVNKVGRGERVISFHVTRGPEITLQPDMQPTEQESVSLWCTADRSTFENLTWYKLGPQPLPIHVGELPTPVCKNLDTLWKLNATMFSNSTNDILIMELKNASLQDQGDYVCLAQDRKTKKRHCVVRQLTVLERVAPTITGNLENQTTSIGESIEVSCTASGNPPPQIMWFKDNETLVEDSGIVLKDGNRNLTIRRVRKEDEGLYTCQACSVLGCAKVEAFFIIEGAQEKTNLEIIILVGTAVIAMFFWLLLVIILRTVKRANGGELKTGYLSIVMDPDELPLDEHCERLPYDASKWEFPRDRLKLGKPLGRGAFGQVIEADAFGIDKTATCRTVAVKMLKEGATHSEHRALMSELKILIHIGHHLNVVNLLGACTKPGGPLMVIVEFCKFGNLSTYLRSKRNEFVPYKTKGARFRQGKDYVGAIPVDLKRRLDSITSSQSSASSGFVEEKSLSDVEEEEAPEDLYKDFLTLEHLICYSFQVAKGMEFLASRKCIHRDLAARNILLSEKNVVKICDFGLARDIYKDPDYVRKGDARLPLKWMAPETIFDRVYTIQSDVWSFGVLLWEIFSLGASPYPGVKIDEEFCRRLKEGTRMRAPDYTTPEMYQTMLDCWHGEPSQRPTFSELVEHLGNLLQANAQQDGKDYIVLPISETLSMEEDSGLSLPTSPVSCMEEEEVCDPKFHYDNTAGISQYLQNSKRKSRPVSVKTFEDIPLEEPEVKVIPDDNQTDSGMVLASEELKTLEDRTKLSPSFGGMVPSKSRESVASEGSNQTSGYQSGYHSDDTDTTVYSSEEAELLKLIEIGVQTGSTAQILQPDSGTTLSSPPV

| SMILES | microsomal CLint at 1 µM [1] [µL/min/mg] | inhibition (Mus musculus) | also measured |
| --- | --- | --- | --- |
| Nc1nccc(Oc2ccc3c(C(=O)Nc4cccc(C(F)(F)F)c4)cccc3c2)n1 | – | – | IC50 [2]: 1.7 nM; inhibition (Rattus norvegicus): inactive |
| O=C(Nc1cccc(C(F)(F)F)c1)c1cccc2cc(Oc3cc(CO)ncn3)ccc12 [BFH-772] | – | – | IC50 [2]: 1.3 nM |
| O=C(Nc1cc(C2CC2)on1)n1ccc2cc(Oc3ncnc4c3CCNC4)ccc21 | – | inactive | – |
| O=C(Nc1cc(C2CC2)on1)n1ccc2cc(Oc3cc(CO)ncn3)ccc21 | – | inactive | – |
| CC(C)(CO)c1cc(NC(=O)n2ccc3cc(Oc4ncnc5c4CNC5)ccc32)no1 | – | inactive | – |

Further lines, with some results ahead:

| microsomal CLint at 1 µM [1] [µL/min/mg] | SMILES | inhibition (Mus musculus) | also measured |
| --- | --- | --- | --- |
| 114 | CNCc1cc(Oc2ccc3c(ccn3C(=O)Nc3cc(C(C)C)on3)c2)ncn1 | – | – |
| 52.3 | CNCc1cc(Oc2ccc3c(ccn3C(=O)Nc3cc(C(C)C)[nH]n3)c2)ncn1 | – | – |
| 131 | CNCc1cc(Oc2ccc3c(ccn3C(=O)Nc3cc(C(F)(F)F)[nH]n3)c2)ncn1 | – | – |

— ChEMBL document CHEMBL4052831, “The Discovery of N-(1-Methyl-5-(trifluoromethyl)-1H-pyrazol-3-yl)-5-((6- ((methylamino)methyl)pyrimidin-4-yl)oxy)-1H-indole-1-carboxamide (Acrizanib), a VEGFR-2 Inhibitor Specifically Designed for Topical Ocular Delivery, as a Therapy for Neovascular Age-Related Macular Degeneration” (J Med Chem, 2018)
